Assays:
blood brain barrier = assay: Fluorescently labeled dextran extravasation into mouse brain (fluorimetry); type: in vivo, mice; settings: wild type mice, 10,000 Da FITC-dextran, i.v., 3 h, vs vehicle
Protocol: The adenosine receptor agonists NECA, CCPA, CGS 21860, and SCH 58261 (Tocris, Ellisville, Mo.) were each dissolved in DMSO then diluted in PBS to the desired concentration; in most cases final DMSO concentrations were <0.5% (vol/vol). Lexiscan (Regadenoson; TRC, Inc., Toronto) was dissolved in PBS. For vehicle controls, DMSO was diluted in PBS to the same concentration. Dehydrated dextrans labeled with either FITC or Texas Red (Invitrogen, Carlsbad, Calif.) were re-suspended in PBS to 10 mg/ml. All experiments involving dextran injection used 1.0 mg dextran in PBS. In experiments where drug and dextran were injected concomitantly, 1.0 mg of dextran was mixed with the drug to the desired concentration in a final volume of 200 μl. In dose-response experiments, drugs and dextrans were injected concomitantly. All injections, except injections of SCH 58261, were retro-orbital i.v. with a 27-gauge needle. In the SCH 58261 experiment, SCH 58261 injections, 1 mg/kg, were intraperitoneal and mice were pre-dosed with this concentration daily for 4 days prior to the day of the experiment. An additional injection was administered at the time of the experiment. Vehicle/drug and dextrans were injected on day 5 and tissues were collected 3 h after vehicle/drug administration. In Lexiscan experiments, Lexiscan was administered i.v. with 3 injections, 5 min apart and tissues were collected at 15 min unless otherwise indicated.
In dose-response experiments and experiments with the A1 AR and A2A AR knock-out mice, drugs and dextrans were injected concomitantly. After 3 h, the mice were anesthetized with ketamine/xylazine and subjected to a nose cone containing isoflurane. They were perfused with 25-50 ml ice-cold PBS through the left ventricle of the heart then decapitated. Their brains were removed, weighed and frozen for later analysis.
Ice-cold 50 mMTris-Cl (pH 7.6) was added to frozen brains (100 μl per 100 mg brain) and were to thawed on ice. They were homogenized with a dounce homogenizer and centrifuged at […] in a microfuge for 30 min at room temperature (rt). The supernatants were transferred to new tubes and an equal volume absolute methanol was added. The samples were centrifuged again at […] for 30 min at rt. Supernatant (200 μl) was transferred to a Corning costar 96 well black polystyrene assay plate (clear bottom). Additionally, a series of standards containing 0.001-10 pg/ml dextran in 50% Tris-Cl/50% absolute methanol (vol/vol) was added to each plate. Absolute concentrations of dextrans were derived from these standard curves. Fluorimetric analysis was performed on a BioTek (Winooski, Vt.) Synergy 4. FITC-dextran was detected at 488/519 (excitation/emission) and Texas Red-dextran was detected at 592/618.

hCMEC/D3 cells = assay: Jurkat cell migration across hCMEC/D3 transwell in vitro BBB; type: cell-based, human; settings: 24 hours
Protocol: hCMEC/D3 cells were seeded onto Transwell and allowed to grow to confluencey. 2×10^6 Jurkat cells were added to the upper chamber with or without NECA (general adenosine receptor [AR] agonist), CCPA (A1 AR agonist), CGS 21860 (A2A AR agonist), or DMSO vehicle. After 24 hours, migrated cells in the lower chamber were counted. Values are relative to the number of cells that migrate through non-[…]3 seeded transwells.

HCMECD3 cells = assay: cAMP levels in human brain endothelial cells (cAMP Screen kit); type: cell-based; settings: 15 minutes
Protocol: […]3 cells were grown to confluencey on 24 well plates. As adenosine receptor (“AR”) stimulation is known to influence cAMP levels, cells were treated with or without various concentrations of NECA (general AR agonist), CCPA (A1 AR agonist), CGS 21860 (A2A AR agonist), DMSO vehicle, or Forksolin (induces cAMP). After 15 minutes, lysis buffer was added and the cells were frozen at -80 C to stop the reaction. Duplicate samples were used for each condition. cAMP levels were assayed using a cAMP Screen kit (Applied Biosystems, Foster City, Calif.).

Z310 cells = assay: Jurkat cell migration across Z310 choroid plexus cell transwell; type: cell-based, murine; settings: 24 hours, n=1
Protocol: To test the hypothesis, Transwell membranes were seeded with Z310 cells and allowed to grow to confluencey. 2×10^6 Jurkat cells were added to the upper chamber with or with out NECA (n=1, general AR agonist), CCPA (n=1, A1 AR agonist), CGS 21860 (n=1, A2A AR agonist), or DMSO vehicle(n=1). After 24 hours, migrated cells in the lower chamber were counted. Values are relative to the number of cells that migrate through non-Z310 seeded transwells and the results are shown in FIG. 12.

Bend.3 cells = assay: F-actin (phalloidin) staining of endothelial cells; type: cell-based, mouse; settings: BECs, 1 μM, 3 or 30 min, vs vehicle
Protocol: Bend.3 cells were grown (as described above) on circular cover slips in 24-well plates. Cells were treated for 3 or 30 min with 1 μM CCPA, 1 μM […], DMSO or media alone. Cover slips were washed with PBS, fixed in 4% paraformaldahyde, washed again in PBS and then permeabilized with 0.5% TritonX-100 in PBS. After washing in PBS/1% BSA, cover slips were blocked with 1% BSA then stained with Phallodin-Alexa 568. Cover slips were washed and mounted on slides with ProlongGold containing DAPI (Invitrogen). Images were obtained on an Olympus BX51 fluorescent microscope.

[1] = Klabunde 1983; cited from earlier work
EAE = EAE induction and scoring (MOG35-55/CFA/PTX); type: in vivo, mice
Excerpt: Cd73^−/− mice have been previously described (Thompson et al., “Crucial Role for Ecto-5′-Nucleotidase (CD73) in Vascular Leakage During Hypoxia,” J. Exp. Med. 200:1395-1405 (2004), which is hereby incorporated by reference in its entirety) and have been backcrossed to C57BL/6 for 14 generations. Cd73^−/− mice have no overt susceptibility to infection and appear normal based on the size and cellular composition of their lymphoid organs and their T and B cell responses in in vivo and in vitro assays (Thompson et al., “Crucial Role for Ecto-5′-Nucleotidase (CD73) in Vascular Leakage During Hypoxia,” J. Exp. Med. 200:1395-1405 (2004), which is hereby incorporated by reference in its entirety). C57BL/6 and tcrα^−/− mice on the C57BL/6 background were purchased from The Jackson Laboratories. Mice were bred and housed under specific pathogen-free conditions at Cornell University or the University of Turku. For adenosine receptor blockade experiments, mice were given drinking water supplemented with 0.6 g/L of caffeine (Sigma) or 2 mg/kg SCH58261 (1 mg/kg s.c. and 1 mg/kg i.p.) in DMSO (45% vol. in PBS) or 45% DMSO alone starting 1 day before EAE induction and continuing throughout the experiment. All procedures performed on mice were approved by the relevant animal review committee.
EAE was induced by subjecting mice to the myelin oligodendrocyte glycoprotein (“MOG”) EAE-inducing regimen as described in Swanborg, “Experimental Autoimmune Encephalomyelitis in Rodents as a Model for Human Demyelinating Disease,” Clin. Immunol. Immunopathol. 77:4-13 (1995) and Bynoe et al., “Epicutaneous Immunization with Autoantigenic Peptides Induces T Suppressor Cells that Prevent Experimental Allergic Encephalomyelitis,” Immunity 19:317-328 (2003), which are hereby incorporated by reference in their entirety. […] Mice were scored daily for EAE based on disease symptom severity; 0=no disease, 0.5-1=weak/limp tail, 2=limp tail and partial hind limb paralysis, 3=total hind limb paralysis, 4=both hind limb and fore limb paralysis, 5=death. […]
As CD73 catalyzes the breakdown of AMP to adenosine and ARs are expressed in the CNS (Tsutsui et al., “A1 Adenosine Receptor Upregulation and Activation Attenuates Neuroinflammation and Demyelination in a Model of Multiple Sclerosis,” J. Neurosci. 24:1521-1529 (2004)); Rosi et al., The Influence of Brain Inflammation Upon Neuronal Adenosine A2B Receptors,” J. Neurochem. 86:220-227 (2003), which are hereby incorporated by reference in their entirety), it was next determined if AR signaling is important during EAE progression. […] Since CD73 is highly expressed on the choroid plexus (FIG. 6C), it was next determined if ARs are also expressed on the choroid plexus. […]

## OC[C@H]1O[C@@H](n2cnc3c(NC4CCCC4)nc(Cl)nc32)[C@H](O)[C@@H]1O [CCPA, 2-chloro-N^6-cyclopentyladenosine]
Blood brain barrier
  dextran entry into the CNS: increased dextran entry into the CNS
hCMEC/D3 cells
  lymphocyte (Jurkat) migration across the in vitro BBB: induced lymphocyte migration at high levels
HCMECD3 cells
  cAMP levels: increased cAMP levels
Z310 cells
  lymphocyte (Jurkat) migration across the CP: induced lymphocyte migration at high levels
Bend.3 cells
  actinomyosin stress fiber formation: marked induction of actinomycin stress fibers

## CCNC(=O)[C@H]1O[C@@H](n2cnc3c(N)nc(NCCc4ccc(CCC(=O)O)cc4)nc32)[C@H](O)[C@@H]1O [CGS 21680, 4-[2-[[6-Amino-9-(N-ethyl-b-D-ribofuranuronamidosyl)-9H-purin-2-yl]amino]ethyl]benzenepropanoic acid]
Blood brain barrier
  dextran entry into the CNS: increased dextran entry into the CNS
hCMEC/D3 cells
  lymphocyte (Jurkat) migration across the in vitro BBB: promoted lymphocyte migration across the in vitro BBB when used at a lower concentration
HCMECD3 cells
  cAMP levels: slightly increased cAMP levels
Z310 cells
  lymphocyte (Jurkat) migration across the CP: promoted lymphocyte migration across the CP

## Nc1ncnc2c1ncn2[C@@H]1O[C@H](CO)[C@@H](O)[C@H]1O [adenosine]
[1]
  half-life: < 10 s

## Cn1c(=O)c2c(ncn2C)n(C)c1=O [caffeine]
EAE; cd73−/− mice, caffeine 0.6 g/L in drinking water
  EAE development: did not develop EAE
EAE; wild type mice, caffeine 0.6 g/L in drinking water from 1 day prior to and throughout EAE experiment
  EAE development: dramatically protected against EAE development

B1: PEG-ADA: PEGylated adenosine deaminase (protein, UniProt P56658 2-363, looked up)
Adenosine deaminase: AQTPAFNKPKVELHVHLDGAIKPETILYYGRKRGIALPADTPEELQNIIGMDKPLSLPEFLAKFDYYMPAIAGCREAVKRIAYEFVEMKAKDGVVYVEVRYSPHLLANSKVEPIPWNQAEGDLTPDEVVSLVNQGLQEGERDFGVKVRSILCCMRHQPSWSSEVVELCKKYREQTVVAIDLAGDETIEGSSLFPGHVKAYAEAVKSGVHRTVHAGEVGSANVVKEAVDTLKTERLGHGYHTLEDATLYNRLRQENMHFEVCPWSSYLTGAWKPDTEHPVVRFKNDQVNYSLNTDDPLIFKSTLDTDYQMTKNEMGFTEEEFKRLNINAAKSSFLPEDEKKELLDLLYKAYGMPSPASAEQCL
modifications: PEGylated
notes: PEGylated adenosine deaminase
EAE; wild-type mice, 15 units/kg i.p. every 4 days, vs PBS vehicle
  EAE development: inhibits the development of EAE
